Consider nine molecules from patent US6124263A, “Treatment of tumors by administration of growth hormone releasing compounds and their antagonists” (Asta Medica AG, priority 1998, dated 2000).

Numbered stars: 1 amine (or outer) side, 2 acyl side, 3 side chain; on linkers, the order of the positions; unused ones are H or OH. Square brackets hold non-standard residues; d marks the D form. Peptide text beside a SMILES is read from it. Haic = O=C1[C@@H](N[*:1])CCc2cccc3c2N1[C@H](C(=O)[*:2])C3; dTrp(2-Me) = Cc1[nH]c2ccccc2c1C[C@@H](N)C(=O)O

In assay [1] the test system is Human lung carcinoma cells (CaLu1). It is filed as cell-based. The note with it: for EC50: 3 h; for effect on basal and EGF-stimulated 3H-thymidine incorporation: 10-6 mol/l compound, 20 h + 4 h incubation, FIG. 4. Here is the method:
Human lung carcinoma cells (CaLu1), T47D and MDA-MB231, respectively, human oestrogen dependent and oestrogen independent breast cancer cell lines were purchased from the ATCC (Rockville, Md., USA). Cells were routinely cultured in […] flasks at 37° C., 5% CO2 and 95% humidified atmosphere in RPMI supplemented with 10% FCS, penicillin-streptomycin and fungizone. When a subconfluent state was reached, cells were detached from the flasks with trypsin/EDTA. DNA synthesis was evaluated by ^3 H-thymidine incorporation as described in G. Muccioli et al., Journal of Endocrinology, 153, 365-371, 1997. […] After incubation for 20 hours, ^3 H-thymidine was added and incubation was continued for a further 4 hours. The reaction was halted and the cells were harvested onto glass-fiber filter strips. Incorporation of ^3 H-thymidine was measured in a scintillation counter.
A general note: Uptake of a labelled nucleoside into DNA is a usual measure of proliferation.

Assay [2] has as its system GHRP receptors. Nature of the assay: GHRP receptor assay: 125I-Tyr-Ala-Hexarelin binding to tumor membranes. The conditions noted are these: for competition with 125I-Tyr-Ala-Hexarelin for the tumoral binding sites (displacement of radiotracer binding): membranes of a non-endocrine carcinoma of lung origin, FIG. 3. More on the design: species or system human. Here is the method:
Surgical tumor specimens were collected from the Department of Biomedical Sciences and Human Oncology (Division of Pathology) of the University of Turin. A tumor fragment adjacent to that used for histopathological diagnosis was immediately frozen at -80° C. and stored for 2 to 60 months until further processed for binding studies. Samples of 13 invasive breast carcinoma (10 ductal and 3 lobular), 14 non-endocrine lung carcinomas (5 squamous cell and 9 adenocarcinomas), 11 endocrine tumors of the lung, 9 endocrine tumors of the pancreas and 12 thyroid carcinomas (7 of follicular origin and 5 of medullary origin) were used. Non-neoplastic normal tissues of the corresponding organs were also analysed in parallel with the individual tumors.
GHRP receptors were measured on tumor membranes as described in G. Muccioli et al., Journal of Endocrinology, 157, 99-106, 1998, using ^125 I-Tyr-Ala-Hexarelin as a ligand. Specific binding was calculated as the difference between binding in the absence and in the presence of excess unlabelled Tyr-Ala-Hexarelin and expressed as a percentage of the radioactivity added. Saturation and competition binding studies were analyzed with the GraphPAD Prism 2 program (GraphPAD Software, San Diego, Calif., USA).

For assay [3], the system named is Human lung carcinoma cells (CaLu1). Nature of the assay: Cell growth study (cell count), human lung carcinoma cells. The format is cell-based. The note with it: FIG. 6. Here is the method:
(§1) Human lung carcinoma cells (CaLu1), T47D and MDA-MB231, respectively, human oestrogen dependent and oestrogen independent breast cancer cell lines were purchased from the ATCC (Rockville, Md., USA). Cells were routinely cultured in […] flasks at 37° C., 5% CO2 and 95% humidified atmosphere in RPMI supplemented with 10% FCS, penicillin-streptomycin and fungizone. When a subconfluent state was reached, cells were detached from the flasks with trypsin/EDTA. Cell growth studies were carried out as described in P.Cassoni et al., Virchows Archiv, 425, 467-472, 1994. Cells were seeded in triplicate in 24-multiwell plates at a density of 5,000-10,000 cells/ml. Twenty-four hours after plating the medium was changed. Hexarelin or Ala-Hexarelin were added where requested at concentrations ranging from 10^-8 to 10^-6 mol/l. The medium was changed every 48 hours. Cells were counted at 48 and 72 or 96 hours of treatment in a double blind analysis by two independent investigators using a haemocytometer.

The subject of assay [4] is human breast cancer T47D cells. Nature of the assay: Cell growth study (cell count), T47D cells. The note with it: FIG. 7a. The format is cell-based. Here is the method: as §1
The subject of assay [5] is human breast cancer MDA-MB231 cells. The experiment in a line: Cell growth study (cell count), MDA-MB231 cells. It is filed as cell-based. The conditions noted are these: FIG. 8a. As to the method:
as §1

[6] abbreviates: 10^-7 mol/l and 10^-6 mol/l, any time point tested.

`NCCCC[C@H](NC(=O)[C@@H](Cc1ccccc1)NC(=O)[C@H](Cc1c[nH]c2ccccc12)NC(=O)[C@@H](CCCCN)NC(=O)[C@@H](Cc1c[nH]c2ccccc12)NC(=O)[C@@H](N)Cc1c[nH]cn1)C(N)=O` [(D-Lys)3 -GHRP6, His-D-Trp-D-Lys-Trp-D-Phe-Lys-NH2] (H-H[dW][dK]W[dF]K-NH2) returned an EC50 in assay [1] of 0.09 µM.

In assay [1], `Cc1[nH]c2ccccc2c1C[C@@H](NC(=O)[C@H](Cc1c[nH]cn1)NC(=O)[C@H](C)N)C(=O)N[C@@H](C)C(=O)N[C@@H](Cc1c[nH]c2ccccc12)C(=O)N[C@H](Cc1ccccc1)C(=O)N[C@@H](CCCCN)C(N)=O` [Ala-Hexarelin, Ala-His-D-Mrp-Ala-Trp-D-Phe-Lys-NH2] (H-AH[dTrp(2-Me)]AW[dF]K-NH2) returned an EC50 of 0.1 µM.

For `Cc1[nH]c2ccccc2c1C[C@@H](NC(=O)[C@@H]1Cc2cccc3c2N1C(=O)[C@@H](N)CC3)C(=O)N[C@H](CCCCN)C(=O)N[C@@H](Cc1c[nH]c2ccccc12)C(=O)N[C@H](Cc1ccccc1)C(=O)N[C@@H](CCCCN)C(N)=O` [EP80317, HAIC-D-Mrp-D-Lys-Trp-D-Phe-Lys-NH2] (Haic-[dTrp(2-Me)][dK]W[dF]K-NH2), the 50% effective concentration (EC50) in assay [1] came to 0.056 µM.

Turning to `Cc1[nH]c2ccccc2c1C[C@@H](NC(=O)[C@@H](N)Cc1cnc[nH]1)C(=O)N[C@@H](C)C(=O)N[C@@H](Cc1c[nH]c2ccccc12)C(=O)N[C@H](Cc1ccccc1)C(=O)N[C@@H](CCCCN)C(N)=O` [Hexarelin, His-D-Mrp-Ala-Trp-D-Phe-Lys-NH2] (H-H[dTrp(2-Me)]AW[dF]K-NH2), the “competition with 125I-Tyr-Ala-Hexarelin for the tumoral binding sites (displacement of radiotracer binding)” value (“competition with 125I-Tyr-Ala-Hexarelin” below) in assay [2] is listed as “displaced in a dose-dependent fashion”. For the same molecule, in assay [1] (EGF 1 ng/ml), the “effect on basal and EGF-stimulated 3H-thymidine incorporation” value is “able to inhibit both basal and the EGF-stimulated”. For the same molecule, the “inhibition of the proliferative effect of EGF with increasing concentrations” value in assay [1] (10^-8 to 10^-6 mol/l, EGF 1 ng/ml, FIG. 5) was “inhibited in a dose-dependent fashion”. In assay [1], this molecule registered an EC50 of 0.08 µM. For the same molecule, the “decrease in cell number compared with control at higher concentrations” value in assay [3] (setting [6]), in assay [4] (setting [6]) and in assay [5] (setting [6]) was “further increased” each time. Moreover, the “decrease in cell number compared with control” value in assay [3] (10^-8 mol/l, after 96 hours) is recorded as -47%; in assay [4] (10^-8 mol/l, after 96 hours), -54%; in assay [5] (10^-8 mol/l, after 72 hours), -33%.

For the molecule `CC(C)(N)C(=O)N[C@H](COCc1ccccc1)C(=O)N1CCC2(CC1)CN(S(C)(=O)=O)c1ccccc12` [MK0677, reference compound], the “competition with 125I-Tyr-Ala-Hexarelin” value in assay [2] was “negligible displacement”. Also, in assay [1] (EGF 1 ng/ml), the “effect on basal and EGF-stimulated 3H-thymidine incorporation” value is recorded as “slight inhibition”.

In turn, `Cc1[nH]c2ccccc2c1C[C@@H](NC(=O)[C@H](Cc1c[nH]cn1)NC(=O)[C@H](C)NC(=O)[C@@H](N)Cc1ccc(O)cc1)C(=O)N[C@@H](C)C(=O)N[C@@H](Cc1c[nH]c2ccccc12)C(=O)N[C@H](Cc1ccccc1)C(=O)N[C@@H](CCCCN)C(N)=O` [Tyr-Ala-Hexarelin, Tyr-Ala-His-D-Mrp-Ala-Trp-D-Phe-Lys-NH2] (H-YAH[dTrp(2-Me)]AW[dF]K-NH2) gave an EC50 in assay [1] of 0.065 µM.

Regarding `C[C@H](N)C(=O)NCC(=O)N[C@H]1CSSC[C@@H](C(=O)O)NC(=O)[C@H](CO)NC(=O)[C@H]([C@@H](C)O)NC(=O)[C@H](Cc2ccccc2)NC(=O)[C@H]([C@@H](C)O)NC(=O)[C@H](CCCCN)NC(=O)[C@H](Cc2c[nH]c3ccccc23)NC(=O)[C@H](Cc2ccccc2)NC(=O)[C@H](Cc2ccccc2)NC(=O)[C@H](CC(N)=O)NC(=O)[C@H](CCCCN)NC1=O` [somatostatin], in assay [2], the “competition with 125I-Tyr-Ala-Hexarelin” value is “no competition”.

Regarding “GHRH: Human GHRH (GHRH 1-44) purchased from Bachem”, the “competition with 125I-Tyr-Ala-Hexarelin” value in assay [2] is given as “no competition”.

Consider “^125 I-Tyr-Ala-His-D-Mrp-Ala-Trp-D-Phe-Lys-NH2 [^125 I-Tyr-Ala-Hexarelin]”, for which the “binding of 125I-Tyr-Ala-Hexarelin to tumor membranes as a function of radioligand concentration (saturation, Scatchard)” value in assay [2] (non-endocrine carcinoma of lung origin, FIG. 2) is “saturable specific binding”.

Usually EC50 stands for the concentration that produces a half-maximal response.
